According to ChEMBL document CHEMBL1201862, “PubChem BioAssay data set” (2004):
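In this assay, cells in 96-well plates receive the compound at five concentrations for 48 hours. Endpoints are linearly interpolated between the surrounding concentrations. Here, GI50 denotes the concentration required for 50% inhibition of growth.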 The source made the active and inactive calls. Rule as the data show it: active = GI50 up to about 1.1 µM and inactive = higher.

Key:
Experiment in all cases: NCI-60 cell line screen, 48 h
SNB-19 = system: SNB-19
RPMI-8226 = system: RPMI-8226
SK-OV-3 = system: SK-OV-3
NCI-H23 = system: NCI-H23
SNB-75 = system: SNB-75
HCT-116 = system: HCT-116
CCRF-CEM = system: CCRF-CEM
ACHN = system: ACHN
U-251 = system: U-251
CAKI-1 = system: CAKI-1
SK-MEL-5 = system: SK-MEL-5
NCI-H460 = system: NCI-H460
PC-3 = system: PC-3
M14 = system: M14
A498 = system: A498
TK-10 = system: TK-10
MOLT-4 = system: MOLT-4
HOP-92 = system: HOP-92
OVCAR-5 = system: OVCAR-5
RXF 393 = system: RXF 393

Row | Compound | GI50 (SNB-19) | GI50 (RPMI-8226) | GI50 (SK-OV-3) | GI50 (NCI-H23) | GI50 (SNB-75) | GI50 (HCT-116) | GI50 (CCRF-CEM) | GI50 (ACHN) | GI50 (U-251) | GI50 (CAKI-1) | GI50 (SK-MEL-5) | GI50 (NCI-H460) | GI50 (PC-3) | GI50 (M14) | GI50 (A498) | GI50 (TK-10) | GI50 (MOLT-4) | GI50 (HOP-92) | GI50 (OVCAR-5) | GI50 (RXF 393)
1 | CCC(C)C(=O)OCC(=O)c1ccc(-c2ccccc2)cc1 (stereo not drawn) | 80.7 µM (inactive) | 24.5 µM (inactive) | > 100 µM (inactive) | 63.7 µM (inactive) | 80.7 µM (inactive) | 68.7 µM (inactive) | 35 µM (inactive) | > 100 µM (inactive) | 50.5 µM (inactive) | 42.7 µM (inactive) | 24.7 µM (inactive) | > 100 µM (inactive) | 63 µM (inactive) | 89.7 µM (inactive) | 32.7 µM (inactive) | 66.4 µM (inactive) | 46.9 µM (inactive) | > 100 µM (inactive) | > 100 µM (inactive) | 
2 | NCCCNCCCCN1CC1 | 6.55 µM (inactive) | 7.01 µM (inactive) | 2.25 µM (inactive) | 6.7 µM (inactive) | 0.372 µM (active) | 6.92 µM (inactive) | 0.836 µM (active) | 1.3 µM (inactive) | 2.84 µM (inactive) | 0.0486 µM (active) | 2.25 µM (inactive) | 16.7 µM (inactive) | 5.69 µM (inactive) | 11.4 µM (inactive) |  | 5.96 µM (inactive) | 1.26 µM (inactive) | 0.745 µM (active) | 12 µM (inactive) | 0.705 µM (active)
3 | COc1ccc(C2Oc3c(cccc3-c3c(-c4ccc(O)cc4)oc4cc(O)cc(O)c4c3=O)C(=O)C2O)cc1O (stereo not drawn) | > 100 µM (inactive) | 83.2 µM (inactive) | > 100 µM (inactive) | > 100 µM (inactive) | 60.4 µM (inactive) | > 100 µM (inactive) | > 100 µM (inactive) | > 100 µM (inactive) | > 100 µM (inactive) |  | > 100 µM (inactive) | > 100 µM (inactive) | > 100 µM (inactive) | > 100 µM (inactive) | > 100 µM (inactive) | > 100 µM (inactive) | > 100 µM (inactive) | > 100 µM (inactive) | > 100 µM (inactive) | 
4 | O=C1/C(=C/C=C/c2ccccc2)CCC1CNc1ccc(Br)cc1 (stereo not drawn) | > 100 µM (inactive) | 5.47 µM (inactive) | 88.1 µM (inactive) | > 100 µM (inactive) |  | 37.9 µM (inactive) | 22.7 µM (inactive) | 6.53 µM (inactive) | > 100 µM (inactive) | > 100 µM (inactive) | 47.5 µM (inactive) | 72.1 µM (inactive) | 79.3 µM (inactive) | 77.6 µM (inactive) | 68.9 µM (inactive) | 43.3 µM (inactive) | 24.3 µM (inactive) | > 100 µM (inactive) | > 100 µM (inactive) | > 100 µM (inactive)
5 | COc1cccc(N2N=C3c4ccccc4-n4c(nc5ccccc54)C3C2N)c1 (stereo not drawn) | > 100 µM (inactive) | > 100 µM (inactive) |  | > 100 µM (inactive) | > 100 µM (inactive) | > 100 µM (inactive) |  | > 100 µM (inactive) | > 100 µM (inactive) | > 100 µM (inactive) | 20.7 µM (inactive) | > 100 µM (inactive) | > 100 µM (inactive) | 34.1 µM (inactive) | > 100 µM (inactive) | 92.9 µM (inactive) |  | > 100 µM (inactive) | 47.2 µM (inactive) | 
6 | Nc1nc(O)c2nc(CNc3ccc(C(=O)NC(CCC(=O)O)C(=O)O)cc3)cnc2n1 (stereo not drawn) | > 100 µM (inactive) | > 100 µM (inactive) | > 10 µM (inactive) | > 100 µM (inactive) | 0.9 µM (active) |  | > 100 µM (inactive) | > 100 µM (inactive) | > 100 µM (inactive) |  | > 100 µM (inactive) | > 100 µM (inactive) | > 100 µM (inactive) | > 100 µM (inactive) |  | > 100 µM (inactive) | > 100 µM (inactive) |  | > 100 µM (inactive) | > 100 µM (inactive)
7 | CC(C)C1(NC(=O)C2CC3c4cccc5[nH]cc(c45)CC3N(C)C2)OC2(O)C3CCCN3C(=O)C(Cc3ccccc3)N2C1=O (stereo not drawn) | 57.7 µM (inactive) | 4.44 µM (inactive) |  | 30.5 µM (inactive) | 6.71 µM (inactive) | 16.9 µM (inactive) | 5.9 µM (inactive) | 21.4 µM (inactive) | 34.3 µM (inactive) | 26 µM (inactive) | 27.7 µM (inactive) | 19.2 µM (inactive) | 5.62 µM (inactive) | 42.7 µM (inactive) |  | 30.6 µM (inactive) | 3.81 µM (inactive) | 18.6 µM (inactive) | > 100 µM (inactive) | 
8 | CCn1c(-c2ccccc2)nc2c1C(=O)c1ccccc1C2=O | 32.8 µM (inactive) | 36.6 µM (inactive) | 20.6 µM (inactive) | 21.8 µM (inactive) |  | 21.7 µM (inactive) | 18.4 µM (inactive) |  | 29.9 µM (inactive) |  | 11.2 µM (inactive) | 20 µM (inactive) | 10.2 µM (inactive) | 15.4 µM (inactive) |  | 36.2 µM (inactive) | 14.7 µM (inactive) | 24.2 µM (inactive) | 32.9 µM (inactive) | 15.6 µM (inactive)
9 | CCOc1cc(CCNC)c2c(ccc3ccc(OC)c(O)c32)c1OC | 16.1 µM (inactive) | 12.4 µM (inactive) | 14.4 µM (inactive) | 11.7 µM (inactive) | 16 µM (inactive) | 10.4 µM (inactive) | 14.9 µM (inactive) | 13.6 µM (inactive) | 18.3 µM (inactive) | 17.5 µM (inactive) | 11.8 µM (inactive) | 14.1 µM (inactive) | 13.2 µM (inactive) | 13.9 µM (inactive) |  | 18 µM (inactive) | 5.82 µM (inactive) | 12.1 µM (inactive) | 14.5 µM (inactive) | 15.7 µM (inactive)
10 | CCO/C(=N/S(=O)(=O)C(F)(F)F)N(C(C)C)C(C)C | > 100 µM (inactive) | > 100 µM (inactive) |  | > 100 µM (inactive) |  | > 100 µM (inactive) | > 100 µM (inactive) | > 100 µM (inactive) | > 100 µM (inactive) | > 100 µM (inactive) | > 100 µM (inactive) | > 100 µM (inactive) | > 100 µM (inactive) | > 100 µM (inactive) | > 100 µM (inactive) | > 100 µM (inactive) | > 100 µM (inactive) | > 100 µM (inactive) | > 100 µM (inactive) | > 100 µM (inactive)
11 | O=C(/C=C/c1cccs1)c1cccc(C(=O)/C=C/c2cccs2)n1 | 19.3 µM (inactive) | 2.97 µM (inactive) | > 100 µM (inactive) | 31 µM (inactive) | 65.9 µM (inactive) | 2.82 µM (inactive) | 2.82 µM (inactive) | 11.5 µM (inactive) | 9.1 µM (inactive) | 61.4 µM (inactive) | > 100 µM (inactive) | > 100 µM (inactive) | 36.3 µM (inactive) | > 91.2 µM (inactive) |  | > 100 µM (inactive) | 2.29 µM (inactive) | > 100 µM (inactive) | > 73.1 µM (inactive) | > 48.9 µM (inactive)
12 | CCC1CN2CCc3cc(OC)c(OC)cc3C2CC1CC1c2cc(OC)c(OC)cc2CCN1C(=O)C1CCCN1 (stereo not drawn) | 14.9 µM (inactive) | 50.5 µM (inactive) | 29.4 µM (inactive) | 32.5 µM (inactive) | 26 µM (inactive) | 19.5 µM (inactive) | 26.1 µM (inactive) | 28.7 µM (inactive) | 23.9 µM (inactive) | 6.44 µM (inactive) | 17.3 µM (inactive) | 25.9 µM (inactive) |  | 14.5 µM (inactive) | 28.6 µM (inactive) | 45.4 µM (inactive) | 32.4 µM (inactive) | 28.7 µM (inactive) | 53 µM (inactive) | 33.5 µM (inactive)
13 | COc1ccc(-c2oc3cc(OC)c(OC)c(O)c3c(=O)c2OC)cc1 | 28.4 µM (inactive) | > 100 µM (inactive) | 22.7 µM (inactive) |  | 15.4 µM (inactive) | > 100 µM (inactive) | > 100 µM (inactive) | 33.3 µM (inactive) | 34 µM (inactive) | 10.5 µM (inactive) | > 100 µM (inactive) | > 100 µM (inactive) | 39.8 µM (inactive) | > 100 µM (inactive) |  | 34.1 µM (inactive) | > 100 µM (inactive) | 14.5 µM (inactive) | > 100 µM (inactive) | 22.7 µM (inactive)
14 | O=C(O)Cc1ccc(-n2nnc3c(=O)[nH][nH]c(=O)c32)cc1 | > 100 µM (inactive) | > 100 µM (inactive) |  | > 100 µM (inactive) |  | > 100 µM (inactive) | > 100 µM (inactive) | > 100 µM (inactive) | > 100 µM (inactive) | > 100 µM (inactive) | > 100 µM (inactive) | > 100 µM (inactive) | > 100 µM (inactive) | > 100 µM (inactive) |  | > 100 µM (inactive) | > 100 µM (inactive) | > 100 µM (inactive) | > 100 µM (inactive) | 
15 | CCOC(OCC)C(CC)[Se]c1ccccc1 (stereo not drawn) | > 100 µM (inactive) | 18.3 µM (inactive) | > 100 µM (inactive) | 7.13 µM (inactive) | 35.3 µM (inactive) | 31.8 µM (inactive) | 16.3 µM (inactive) | > 100 µM (inactive) | 2.25 µM (inactive) | > 100 µM (inactive) | > 100 µM (inactive) | 45.7 µM (inactive) |  | 16 µM (inactive) | > 100 µM (inactive) | > 100 µM (inactive) | 37.2 µM (inactive) | 28.6 µM (inactive) | > 100 µM (inactive) | 55.2 µM (inactive)
